In US11879012B2, “Method of modulating cell proliferation” (METRO NORTH HOSPITAL AND HEALTH SERVICE, priority 2018, dated 2024):

What was measured:
[1] = system: microvascular endothelial cells (MEC); assay: MTT assay, metabolic response of microvascular endothelial cells; format: cell-based
Experimental: (§1) Measurement of mitochondrial enzyme activity by MTT conversion was utilised as an indirect assessment of metabolic and proliferative activity. MTT reagent was prepared by diluting the MTT stock solution (5 mg/mL) 1:10 in PBS (i.e., to a final concentration of 0.5 mg/mL MTT). Prior optimization of growth conditions (seeding density and duration in culture) was conducted to ensure sub-confluency at the time of measurement. For example, a seeding density of 10,000 cells per cm^2 and a culture period of 48-hours were routinely used. On the day of analysis, the culture medium was removed from each well and replaced with a fixed volume (0.5 mL per well of a 24 well plate) of MTT solution and incubated at 37° C. for 40 minutes. The MTT reagent was subsequently removed and the formazan product eluted by adding a fixed volume (300 μL per well of a 24 well plate) of acidified isopropanol (24.6 μL of concentrated HCL in 20 mL of isopropanol) to each well for approximately 5 minutes, 150 μL of the eluted stain from each well was then transferred into corresponding wells of a 96 well plate. The optical density was measured using a plate reader at 550 nm (background 620 nm). Microvascular endothelial cells (MEC) were cultured in MEC Culture Medium comprising 500 mL of MCDB-131 media containing 5 mL of 1M L-Glutamine, 5 Penicillin (10,000 IU/mL)/Streptomycin (10,000 ug/mL), 10% v/v foetal calf serum (FCS), 0.5 mL of 1 mg/mL hydrocortisone (Hc) and 0.5 mL of 10 ug/mL epidermal growth factor (EGF). Spent culture media was removed and the flask rinsed with 5 mL of phosphate buffered saline (without magnesium or calcium; PBSA). After 30 seconds, the PBSA was removed and 5 mL of 0.02% EDTA/0.05% trypsin reagent was added to the cells. The flask was then incubated at 37° C. for 5-8 minutes. The cells were then dislodged from the flask, removed and added to a 50 mL centrifuge tube containing an equal volume of culture media to neutralize the 0.02% EDTA/0.05% trypsin reagent. This tube was then centrifuged at 100 g for 5 minutes to form a pellet of cells. The supernatant was removed and the pellet of cells resuspended. The diluted cells were split 1:3 into new flasks containing culture media. The flasks were then placed in a humidified CO2 (5%) incubator at 37° C. until the cells were approximately 80% confluent. The process was repeated weekly. For the purpose of serum-free culturing, the MEC and LEC cells were serum starved by incubating them in serum-free MCDB-131 medium (Gibco/Life Technologies) for 12 hours. Limbal epithelial cells (LEC) were cultured in a similar manner to MEC in LEC Culture Medium comprising 500 mL of DMEM/F12 media containing 5 mL of 1M L-Glutamine, 5 mL of Pen (10,000 IU/mL)/Strep (10,000 ug/mL) and 10% FCS (v/v). Additional reagents used in these experiments are described below: • 0.02% EDTA/0.05% trypsin reagent: 5 mL of 2% EDTA solution and 10 mL of thawed 2.5% trypsin solution were added to 485 mL of PBSA, 50 mL aliquots were dispensed into 50 mL centrifuge tubes and stored below −20° C. • Pre-bound Collagen IV: 250 μL of Collagen IV stock solution was added to the wells of a 24 well tissue culture plate and allowed to dry completely over night in a biohazard cabinet. • Pre-bound Vitronectin: a vitronectin stock solution (2 mg/mL) was diluted in water to a final concentration of 5 μg/mL. […]

[2] = system: limbal epithelial cells (LEC); assay: MTT assay, metabolic response of limbal epithelial cells; format: cell-based; details: FIG. 8
Experimental: as §1, with “nm).” for “nm). Microvascular endothelial cells (MEC) were cultured in MEC Culture Medium comprising 500 mL of MCDB-131 media containing 5 mL of 1M L-Glutamine, 5 Penicillin (10,000 IU/mL)/Streptomycin (10,000 ug/mL), 10% v/v foetal calf serum (FCS), 0.5 mL of 1 mg/mL hydrocortisone (Hc) and 0.5 mL of 10 ug/mL epidermal growth factor (EGF).”, “(v/v).” for “(v/v). Additional reagents used in these experiments are described below: • 0.02% EDTA/0.05% trypsin reagent: 5 mL of 2% EDTA solution and 10 mL of thawed 2.5% trypsin solution were added to 485 mL of PBSA, 50 mL aliquots were dispensed into 50 mL centrifuge tubes and stored below −20° C. • Pre-bound Collagen IV: 250 μL of Collagen IV stock solution was added to the wells of a 24 well tissue culture plate and allowed to dry completely over night in a biohazard cabinet. • Pre-bound Vitronectin: a vitronectin stock solution (2 mg/mL) was diluted in water to a final concentration of 5 μg/mL.”

[3] = agent alone, serum-starved cells, 2 days, glucose 10 mg/mL, thrombin 100 IU/mL, FIG. 7
[4] = agent alone, serum-starved cells, 2 days, glucose 10 mg/mL, thrombin 100 IU/mL

Molecule: thrombin
- proliferation of MEC ([1]; 100 IU/mL thrombin with glucose, FIG. 7): stimulated proliferation of MEC in synergy with glucose, exceeding the positive control
- proliferation of MEC [1, 3]: did not significantly stimulate proliferation of endothelium
- proliferation of LEC [2, 4]: did not significantly stimulate proliferation
- proliferation of LEC ([2]; glucose with thrombin): did not significantly stimulate proliferation

Molecule: anti-thrombin III
- proliferation of MEC ([1]; ATIII 10 IU/mL in the presence of thrombin (+glucose) and pre-bound PSGL-1, FIG. 9): stimulated the proliferation of MEC

B1: PSGL-1: pre-bound selectin receptor, P-selectin glycoprotein ligand-1 (protein, UniProt Q14242 42-412, looked up)
P-selectin glycoprotein …: QATEYEYLDYDFLPETEPPEMLRNSTDTTPLTGPGTPESTTVEPAARRSTGLDAGGAVTELTTELANMGNLSTDSAAMEIQTTQPAATEAQTTQPVPTEAQTTPLAATEAQTTRLTATEAQTTPLAATEAQTTPPAATEAQTTQPTGLEAQTTAPAAMEAQTTAPAAMEAQTTPPAAMEAQTTQTTAMEAQTTAPEATEAQTTQPTATEAQTTPLAAMEALSTEPSATEALSMEPTTKRGLFIPFSVSSVTHKGIPMAASNLSVNYPVGAPDHISVKQCLLAILILALVATIFFVCTVVLAVRLSRKGHMYPVRNYSPTEMVCISSLLPDGGEGPSATANGGLSKAKSPGLTPEPREDREGDDLTLHSFLP
- thrombin induced proliferation of LEC ([2]; pre-bound, in the presence of glucose): stimulated thrombin induced proliferation of LEC

B2: P-selectin: pre-bound recombinant human P-selectin (protein, UniProt P16109 42-830, looked up)
P-selectin: WTYHYSTKAYSWNISRKYCQNRYTDLVAIQNKNEIDYLNKVLPYYSSYYWIGIRKNNKTWTWVGTKKALTNEAENWADNEPNNKRNNEDCVEIYIKSPSAPGKWNDEHCLKKKHALCYTASCQDMSCSKQGECLETIGNYTCSCYPGFYGPECEYVRECGELELPQHVLMNCSHPLGNFSFNSQCSFHCTDGYQVNGPSKLECLASGIWTNKPPQCLAAQCPPLKIPERGNMTCLHSAKAFQHQSSCSFSCEEGFALVGPEVVQCTASGVWTAPAPVCKAVQCQHLEAPSEGTMDCVHPLTAFAYGSSCKFECQPGYRVRGLDMLRCIDSGHWSAPLPTCEAISCEPLESPVHGSMDCSPSLRAFQYDTNCSFRCAEGFMLRGADIVRCDNLGQWTAPAPVCQALQCQDLPVPNEARVNCSHPFGAFRYQSVCSFTCNEGLLLVGASVLQCLATGNWNSVPPECQAIPCTPLLSPQNGTMTCVQPLGSSSYKSTCQFICDEGYSLSGPERLDCTRSGRWTDSPPMCEAIKCPELFAPEQGSLDCSDTRGEFNVGSTCHFSCDNGFKLEGPNNVECTTSGRWSATPPTCKGIASLPTPGVQCPALTTPGQGTMYCRHHPGTFGFNTTCYFGCNAGFTLIGDSTLSCRPSGQWTAVTPACRAVKCSELHVNKPIAMNCSNLWGNFSYGSICSFHCLEGQLLNGSAQTACQENGHWSTTVPTCQAGPLTIQEALTYFGGAVASTIGLIMGGTLLALLRKRFRQKDDGKCPLNPHSHLGTYGVFTNAAFDPSP
- thrombin-induced proliferation of MEC ([1]; pre-bound, in the presence of glucose, absence of collagen IV and vitronectin, FIG. 7): reduced the thrombin-induced proliferation of MEC

B3: vitronectin: pre-bound basement membrane protein (protein, UniProt P04004 20-478, looked up)
Vitronectin: DQESCKGRCTEGFNVDKKCQCDELCSYYQSCCTDYTAECKPQVTRGDVFTMPEDEYTVYDDGEEKNNATVHEQVGGPSLTSDLQAQSKGNPEQTPVLKPEEEAPAPEVGASKPEGIDSRPETLHPGRPQPPAEEELCSGKPFDAFTDLKNGSLFAFRGQYCYELDEKAVRPGYPKLIRDVWGIEGPIDAAFTRINCQGKTYLFKGSQYWRFEDGVLDPDYPRNISDGFDGIPDNVDAALALPAHSYSGRERVYFFKGKQYWEYQFQHQPSQEECEGSSLSAVFEHFAMMQRDSWEDIFELLFWGRTSAGTRQPQFISRDWHGVPGQVDAAMAGRIYISGMAPRPSLAKKQRFRHRNRKGYRSQRGHSRGRNQNSRRPSRATWLSLFSSEESNLGANNYDDYRMDWLVPATCEPIQSVFFFSGDKYYRVNLRTRRVDTVDPPYPRSIAQYWLGCPAPGHL
- proliferation of MEC [1, 3]: did not significantly stimulate proliferation of endothelium
- proliferation of LEC [2, 4]: did not significantly stimulate proliferation
